Test results published in US20220389477A1, “METHOD FOR EVALUATING ANTIBIOTIC SUSCEPTIBILITY” (Vrije Universiteit Brussel, priority 2019, published 2022).
Converted amounts (≈) assume the structure as drawn. Read-outs that look alike come from different tables or passages of the source.

What was measured:
Type in all cases: cell-based
[1] = tested on: Klebsiella pneumonia culture; assay: Optical third-derivative MIC method, culture in broth; conditions: for MIC: Klebsiella pneumoniae
Text: (§1) The method of FIG. 1 starts at a time equal to zero, t0 (1). Preferably, said t0 is the moment a pure bacteria culture is finished being prepared. Alternatively, said t0 is the moment all wells contain both said bacteria culture and said antimicrobial drug. After the starting of the experiment each well is periodically illuminated with a light source and the intensity of the transmitted light is detected with a photodetector (2). Preferably, each well is illuminated and the intensity of the transmitted light is detected every hour (2). More preferably, each well is illuminated and the intensity of the transmitted light is detected every 5 to 15 min. After a predetermined time length, preferably after 4 hours, a first, a second and a third derivative of said measured intensity is calculated (3) in a first and a second time frame for each well. Preferably, said second time frame is the last measured time frame after the test has been running for said predetermined time length, and said first time frame is the time frame preceding the second time frame. More preferably, said first time frame is between two and three hours and said second time frame is between three and four hours. After the calculation of said derivatives, said first derivative in said second time frame of said reference well is compared to a growth speed threshold value (4). Preferably, said growth speed threshold value is 0.166 (4). If said first derivative in said second time frame of said reference well is larger than or equal to said growth speed threshold value said bacteria culture is classified as Type I (4). If said first derivative in said second time frame of said reference well is smaller than said growth speed threshold value said bacteria culture is classified as Type II (4). Subsequently, independent of the classification of the bacteria culture according to the two types, the method comprises the following steps which are performed for each well or for all wells except said reference well. Both said first and said second time frames are evaluated to see if there is an inflection point present in the second derivative in said first and/or said second time frame (5).
(§2) If said first and/or said second time frame comprise said inflection point than said third derivative in said first time frame is compared to said third derivative in said second time frame (6). If said third derivative in said first time frame is larger than said third derivative in said second time frame, then said first time frame and said second time frame are selected as a first and second time frame to be used in a minimal inhibitory concentration determination method (10). If said third derivative in said first time frame is not larger than said third derivative in said second time frame, then said well is illuminated again after a certain time period, preferably an hour, more preferably 5 to 15 min after said predetermined time length said, with a light source and the intensity of the transmitted light is detected with a photodetector forming a new time frame subsequent to said second time frame (7). A third derivative, and possibly also a first and/or a second derivative, is calculated in said new time frame (7). Further, in step (7) a new first time frame is put equal to said second time frame and a new second time frame to equal to said new time frame. Subsequently, said third derivative in said new first time frame is compared to said third derivative in said new second time frame (8). If said derivative in said new first time frame is larger than said third derivative in said new second time frame, then said new first time frame and said new second time frame are selected as a first and second time frame to be used in a minimal inhibitory concentration determination method (10). […]

Acinetobacter Species = assay: as above; conditions: AC/2990; for MIC: Acinetobacter
Text: as §1, §2

[2] = tested on: Klebsiella pneumonia culture; assay: Broth microdilution (BMD); conditions: Klebsiella pneumoniae
[3] = tested on: Klebsiella pneumonia culture; assay: E-test; conditions: Klebsiella pneumoniae

MIC ([1]; KP/38.3002, FIG. 5C, overall conclusion, read-out: MIC value determined by the method): 16 µg/mL (≈ 53.4 µM)
MIC ([1]; KP/38.3002, FIG. 5H repetition, Table 10, 3 h-4 h, read-out: MIC (25%) T1): 0.5 µg/mL (≈ 1.67 µM)
MIC ([1]; KP/38.3002, FIG. 5H repetition, Table 10, 3 h-4 h, read-out: MIC (40%) T1): 0.5 µg/mL (≈ 1.67 µM)
MIC ([1]; KP/38.3002, FIG. 5H repetition, Table 10, 3 h-4 h, read-out: MIC (60%) T1): 0.5 µg/mL (≈ 1.67 µM)
MIC ([1]; KP/38.3002, FIG. 5H repetition, Table 10, 3 h-4 h, read-out: MIC (75%) T1): 0.5 µg/mL (≈ 1.67 µM)
MIC ([1]; KP/38.3002, FIG. 5H repetition, Table 10, 4 h-5 h, read-out: MIC (25%) T2): 16 µg/mL (≈ 53.4 µM)
MIC ([1]; KP/38.3002, FIG. 5H repetition, Table 10, 4 h-5 h, read-out: MIC (40%) T2): 16 µg/mL (≈ 53.4 µM)
MIC ([1]; KP/38.3002, FIG. 5H repetition, Table 10, 4 h-5 h, read-out: MIC (60%) T2): 16 µg/mL (≈ 53.4 µM)
MIC ([1]; KP/38.3002, FIG. 5H repetition, Table 10, 4 h-5 h, read-out: MIC (75%) T2): 8 µg/mL (≈ 26.7 µM)
MIC ([1]; KP/38.3002, FIG. 5H repetition, Table 11, 3 h-4 h, read-out: MIC (25%) T1): 16 µg/mL (≈ 53.4 µM)
MIC ([1]; KP/38.3002, FIG. 5H repetition, Table 11, 3 h-4 h, read-out: MIC (40%) T1): 0.25 µg/mL (≈ 0.835 µM)
MIC ([1]; KP/38.3002, FIG. 5H repetition, Table 11, 3 h-4 h, read-out: MIC (60%) T1): 0.25 µg/mL (≈ 0.835 µM)
MIC ([1]; KP/38.3002, FIG. 5H repetition, Table 11, 3 h-4 h, read-out: MIC (75%) T1): 0.25 µg/mL (≈ 0.835 µM)
MIC ([1]; KP/38.3002, FIG. 5H repetition, Table 11, 4 h-5 h, read-out: MIC (25%) T2): 16 µg/mL (≈ 53.4 µM)
MIC ([1]; KP/38.3002, FIG. 5H repetition, Table 11, 4 h-5 h, read-out: MIC (40%) T2): 8 µg/mL (≈ 26.7 µM)
MIC ([1]; KP/38.3002, FIG. 5H repetition, Table 11, 4 h-5 h, read-out: MIC (60%) T2): 8 µg/mL (≈ 26.7 µM)
MIC ([1]; KP/38.3002, FIG. 5H repetition, Table 11, 4 h-5 h, read-out: MIC (75%) T2): 8 µg/mL (≈ 26.7 µM)
MIC ([1]; KP/153.4346, FIG. 5G, overall conclusion, read-out: MIC value determined by the method): > 256 µg/mL
MIC ([1]; MP/072.3489, FIG. 5B, overall conclusion, read-out: MIC value determined by the method): 16 µg/mL (≈ 53.4 µM)
MIC (Acinetobacter Species; 2 h-3 h, omitted from determination (Type II), read-out: MIC (25%) T1): 0.25 µg/mL (≈ 0.835 µM)
MIC (Acinetobacter Species; 2 h-3 h, read-out: MIC (40%) T1): 0.25 µg/mL (≈ 0.835 µM)
MIC (Acinetobacter Species; 2 h-3 h, read-out: MIC (60%) T1): < 0.125 µg/mL
MIC (Acinetobacter Species; 2 h-3 h, read-out: MIC (75%) T1): < 0.125 µg/mL
MIC (Acinetobacter Species; 3 h-4 h, omitted from determination (Type II), read-out: MIC (25%) T2): 128 µg/mL (≈ 428 µM)
MIC (Acinetobacter Species; 3 h-4 h, read-out: MIC (40%) T2): 0.25 µg/mL (≈ 0.835 µM)
MIC (Acinetobacter Species; 3 h-4 h, read-out: MIC (60%) T2): < 0.125 µg/mL
MIC (Acinetobacter Species; 3 h-4 h, read-out: MIC (75%) T2): < 0.125 µg/mL
MIC (Acinetobacter Species; FIG. 5A, overall conclusion, read-out: MIC value determined by the method): 0.25 µg/mL (≈ 0.835 µM)
MIC ([2]; culture KP/38.3002): 16 µg/mL (≈ 53.4 µM)
MIC ([2]; culture KP/153.4346): 16 µg/mL (≈ 53.4 µM)
MIC ([2]; culture MP/072.3489): 32 µg/mL (≈ 107 µM)
MIC ([3]; culture KP/38.3002): 16 µg/mL (≈ 53.4 µM)
MIC ([3]; culture KP/153.4346): > 32 µg/mL
MIC ([3]; culture MP/072.3489): 16 µg/mL (≈ 53.4 µM)
Structure (SMILES): C[C@@H](O)[C@H]1C(=O)N2C(C(=O)O)=C(SCCN=CN)C[C@H]12 [imipenem]
HR? at MIC (25%) ([1]; MP/072.3489, ratio MIC T2/T1): yes (If the ratio of the MIC value in the second time frame over the MIC value in the first time frame is higher than or equal to 8 then the ratio is labelled to be heteroresistant)
HR? at MIC (40%) ([1]; MP/072.3489, ratio MIC T2/T1): yes (If the ratio of the MIC value in the second time frame over the MIC value in the first time frame is higher than or equal to 8 then the ratio is labelled to be heteroresistant)
HR? at MIC (60%) ([1]; MP/072.3489, ratio MIC T2/T1): yes (If the ratio of the MIC value in the second time frame over the MIC value in the first time frame is higher than or equal to 8 then the ratio is labelled to be heteroresistant)
HR? at MIC (75%) ([1]; MP/072.3489, ratio MIC T2/T1): yes (If the ratio of the MIC value in the second time frame over the MIC value in the first time frame is higher than or equal to 8 then the ratio is labelled to be heteroresistant)
HR? at MIC (40%) (Acinetobacter Species; ratio MIC T2/T1): no (If the ratio of the MIC value in the second time frame over the MIC value in the first time frame is lower than or equal to 4 then the ratio is labelled not to be heteroresistant)
HR? at MIC (60%) (Acinetobacter Species; ratio MIC T2/T1): no (If the ratio of the MIC value in the second time frame over the MIC value in the first time frame is lower than or equal to 4 then the ratio is labelled not to be heteroresistant)
HR? at MIC (75%) (Acinetobacter Species; ratio MIC T2/T1): no (If the ratio of the MIC value in the second time frame over the MIC value in the first time frame is lower than or equal to 4 then the ratio is labelled not to be heteroresistant)
HR? at MIC (25%) (Acinetobacter Species; ratio MIC T2/T1, omitted (Type II)): yes (If the ratio of the MIC value in the second time frame over the MIC value in the first time frame is higher than or equal to 8 then the ratio is labelled to be heteroresistant)
